# From patent US12201628B2, “Neuronal modulation” (priority 2013, dated 2025)
# Entries after “also recorded” stand apart in the source; their conditions may differ.
# How the values were obtained:
# Assay type in all cases: in vivo, mice
# [1] = system: VTA dopaminergic neurons; experiment: Conditional place preference (CPP) paradigm; conditions: CNO 2.5 mg/kg
# Method: All behavioral tests were conducted during the same circadian period. The conditional place preference (CPP) test was performed in a rectangular cage with two chambers (25 cm×25 cm each), with a corridor (5 cm×5 cm) connecting the two chambers. The chambers differed in their visual cues and were designed so that mice will have no bias for a particular chamber. The CPP paradigm consisted of four sessions over four days and was conducted 30 days after the viral stereotactic injection. On day 1, individual mice were placed in the connecting corridor (in the same direction) and allowed to freely explore the entire apparatus for 15 minutes (pre-test). On day 2, mice were IP injected with CNO (2.5 mg/kg, Sigma-Aldrich) diluted in sterile saline in order to activate the VTA dopaminergic neurons and then the mice were confined to one of the chambers for 30 min. On day 3, mice were confined to the other chamber for 30 min, 10 min after an injection of sterile saline. On day 4, mice were placed in the center chamber and allowed to freely explore the entire apparatus for 15 minutes (post-test). To calculate the level of preference, the relative time (%) the mouse spent during post-test in the conditioned chamber (the chamber where it received the CNO injection) was divided by the relative time (%) the mouse spent in this chamber during the pre-test (post/pre ratio). Of note, mice in both groups were injected with CNO to control for the potential effects of CNO. The analysis was performed automatically using EthoVision software.
# Behavioral analysis (conditioned place preference; CPP): Three groups of mice were used in this experiment: mice injected with AAV virus encoding the hM3D (Gq), hM4D (Gi) or control carrying only mCherry. On day 1 the mice were given a chance to explore the apparatus for 5 minutes. […] At this stage the mice were only allowed access to one compartment of the apparatus and remains in the compartment for 30 minutes. Day 3: Mice were confounded to the other compartment. […] Time spent in each compartment was measured by motion detecting software (EthoVision). […]
# [2] = system: IL-4 and IL-1β; experiment: Serum cytokine levels (RayBio antibody array, ELISA); conditions: 24 h after CNO; VTA-activated vs control
# Method: VTA-activated and control mice were treated with CNO. Twenty four hours later, they were anaesthetized with ketamine/xylazine and their blood was collected by cardiac puncture. The blood was allowed to clot at room temperature for at least 30 minutes. Serum was collected by centrifuging the sample at 400 g for 10 min. The serum samples pooled from each experimental group (VTA-activated group and control group) were analyzed for cytokine and chemokine levels using the RayBio custom G-Series mouse cytokine antibody array kit (RayBiotech; Norcross, GA) according to manufacturer's instructions. The panel included: CD30 ligand, Eotaxin-1, Eotaxin-2, IFN-γ, IL-1α, IL-1β, IL-2, IL-3, IL-4, IL-6, IL-9, IL-10, IL-12 p40/p70, IL-12 p70, IL-13, IL-17A, MIP-1α, MIP-1γ, RANTES and TNFα. Murine IL-4 and IL-1β standard ELISA kits (PeproTech; Rocky Hill, NJ) were used as a quantitative validation of the IL-4 and IL-1β levels measured with the antibody array kit.
# [3] = system: DREADDs (hM3D(Gq)) expressing VTA dopaminergic neurons; experiment: C-fos staining of VTA neurons after CNO injection; conditions: CNO 2.5 mg/kg, 90 min after injection
# Method: Mice were anesthetized using a ketamine/xylazine mixture (ketamine 80 mg/kg; xylazine 15-20 mg/kg) diluted in sterile saline solution (NaCl 0.9%), before being fixed in the stereotactic frame (Stoelting, IL, US). The AAV8 virus, purchased from the vector core at the University of North Carolina, was used to induce Cre-dependent DREADD expression (AAV8-hSyn-DIO-hM3D(Gq)-mCherry), by injection of 0.7 μl into the right VTA region (anterior-posterior −3.2 mm; media-lateral 0.48 mm; dorsal-ventral 4.7 mm (mouse coordinates)). […] 30 days post surgery passed in order to assure the expression of DREADDs. […]
# Validation of the virus injection site and evaluation of the DREADDs expression were performed by immunohistochemistry. […] The tissues were stained for TH with mouse anti-TH (1:200; Millipore) and the proportion of the DREADDs expressing cells (mCherry+) out of the total TH+ in the VTA was evaluated (1800 cells). […] The proportion of the c-fos+ cell nuclei from the total number of DREADDs-expressing cells was calculated. […] The quantification of double-positive cells was performed using Imaris Software.
# Efficiency of the viral infection in the dopaminergic (TH+) VTA neurons was 58±4% (FIG. 6B). […] Neuronal activation was determined by C-fos staining, an immediate early activation marker. […]
compound,measurement,setting,value
"C[N+]1([O-])CCN(C2=Nc3cc(Cl)ccc3Nc3ccccc32)CC1 [CNO, clozapine-N-oxide]",preference for conditioned chamber (CPP),[1]; Gi (hM4D) mice,avoided the conditioned chamber
same,preference for conditioned chamber (CPP),"[1]; Gq (hM3D, VTA-activated) mice",exhibited a preference for the conditioned chamber; also recorded: increased preference to the conditioned chamber; also recorded: strong preference towards the chamber in which they were injected with CNO
same,preference for conditioned chamber (CPP),[1]; control mice (mCherry only virus),no such bias; also recorded: did not show a clear preference to any single chamber
same,serum IL-1β level,[2],significantly reduced
same,serum IL-4 level,[2],significantly reduced
same,C-fos expression in DREADDs-infected cells,[3]; VTA-activated (hM3D(Gq)) mice,42±0.5%
same,C-fos expression in virus infected cells,[3]; control mice (sham mCherry virus without DREADDs),3±1%
